# Activity calls are given as the source filed them. No cut-off for these calls is given here.
# Legend:
# KB = experiment: Cytotoxicity against human KB cells after 72 hrs by methylene blue dye assay; type: functional, cell-based
# MKN-45 = experiment: Cytotoxicity against human MKN45 cells after 72 hrs by methylene blue dye assay; type: functional, cell-based; details: MKN-45, 72 h
# [1] = Aqueous solubility in distilled water at 2 mg after 24 hrs; type: physicochemical
# [2] = Solubility of the compound in phosphate buffer at 2 mg at pH 7.4 after 24 hrs; type: physicochemical
# Rattus norvegicus [3] = experiment: AUC in Sprague-Dawley rat at 5 mg/kg, iv; type: ADME, organism-based, Plasma; design: dose 5 mg/kg, route intravenous; details: in vivo
# Rattus norvegicus [4] = experiment: Volume of distribution at steady state in Sprague-Dawley rat at 5 mg/kg, iv; type: ADME, organism-based; design: dose 5 mg/kg, route intravenous; details: in vivo
# Rattus norvegicus [5] = experiment: Half life in Sprague-Dawley rat plasma at 5 mg/kg, iv; type: ADME, organism-based; design: dose 5 mg/kg, route intravenous; details: in vivo
# [6] = Half life in Sprague-Dawley rat plasma at 20 mg/kg, po; type: ADME, organism-based; design: dose 20 mg/kg, route oral
# [7] = Cmax in Sprague-Dawley rat at 20 mg/kg, po; type: ADME, organism-based; design: dose 20 mg/kg, route oral; details: in vivo
# [8] = Tmax in Sprague-Dawley rat at 20 mg/kg, po; type: ADME, organism-based; design: dose 20 mg/kg, route oral; details: in vivo
# [9] = AUC in Sprague-Dawley rat at 20 mg/kg, po; type: ADME, organism-based; design: dose 20 mg/kg, route oral; details: plasma
# [10] = Oral bioavailability in Sprague-Dawley rat at 20 mg/kg; type: ADME, organism-based; details: in vivo
# [11] = Inhibition of tubulin polymerization measured every 30 seconds for 30 mins
# [12] = Metabolic stability in human liver microsomes assessed as compound remaining at 1 uM after 30 mins; type: ADME, Microsome; details: read-out: Stability
solubility at 24 h [1] [µg/mL],solubility at 24 h [2] [µg/mL],"remaining at 0.5 h, 1 µM [12] [%]",SMILES,IC50 (KB) [nM],IC50 (MKN-45) [nM],other results
14.3,8.3,–,COc1cc(C(=O)c2c[nH]c3nc(C)ccc23)cc(OC)c1OC [listing 1 of 2 here],–,–,AUC (Rattus norvegicus [3]): 2653 ng·h/mL; Vdss (Rattus norvegicus [4]): 0.7 L/kg; t1/2 (Rattus norvegicus [5]): 24 min; half-life [6]: 78 min; Cmax [7]: 3750 ng/mL; Tmax [8]: 0.5 h; AUC [9]: 4640 ng·h/mL; bioavailability [10]: 35%
< 2,< 1,88.3,COc1ccc2c(C(=O)c3cc(OC)c(OC)c(OC)c3)c[nH]c2n1,20,16,–
–,–,99.6,COc1ccc2c(C(=O)c3cc(OC)c(OC)c(OC)c3)cnn2n1,> 1000,> 1000,–
91.3,79.6,–,COc1cc(C(=O)c2c[nH]c3nc(C)ccc23)cc(OC)c1OC.Cl,–,–,–
< 2,< 1,96.4,CCOc1ccc2c(C(=O)c3cc(OC)c(OC)c(OC)c3)c[nH]c2n1,12,14,inhibition [11]: Active
–,–,35.4,COc1ccc2c(C(=O)c3cc(OC)c(OC)c(OC)c3)c(C)cn2c1,31,26,inhibition [11]: Active
0.9,0.61,54.1,COc1ccc2c(C(=O)c3cc(OC)c(OC)c(OC)c3)c[nH]c2c1,6,5,AUC (Rattus norvegicus [3]): 2712 ng·h/mL; Vdss (Rattus norvegicus [4]): 1.6 L/kg; t1/2 (Rattus norvegicus [5]): 54 min; half-life [6]: 168 min; Cmax [7]: 179 ng/mL; Tmax [8]: 4 h; AUC [9]: 1310 ng·h/mL; bioavailability [10]: 9.7%

# More lines, now with the values behind:
SMILES,solubility at 24 h [1] [µg/mL],solubility at 24 h [2] [µg/mL],"remaining at 0.5 h, 1 µM [12] [%]",IC50 (KB) [nM],IC50 (MKN-45) [nM],other results
COc1ncc2c(C(=O)c3cc(OC)c(OC)c(OC)c3)c[nH]c2n1,–,–,–,284,80,–
COc1cc(C(=O)c2c[nH]c3nc(C)ccc23)cc(OC)c1OC [listing 2 of 2 here],–,–,–,–,–,inhibition [11]: Active
COc1ccc2c(C(=O)c3cc(OC)c(OC)c(OC)c3)n[nH]c2c1,–,–,–,70,95,–
COc1ccn2c(C(=O)c3cc(OC)c(OC)c(OC)c3)cnc2c1,–,–,–,770,730,–
COc1ccc2c(C(=O)c3cc(OC)c(OC)c(OC)c3)ccn2c1,–,–,–,284,80,–
COc1ccn2c(C(=O)c3cc(OC)c(OC)c(OC)c3)c(C)cc2c1,–,–,–,> 1000,354,–

# Source: ChEMBL document CHEMBL1772986, “Scaffold-hopping strategy: synthesis and biological evaluation of 5,6-fused bicyclic heteroaromatics to identify orally bioavailable anticancer agents” (J Med Chem, 2011)
